The test system of data set [1] is T. b. brucei Lab 110 EATRO (pentamidine-sensitive). Details: method as in PMID 19736009. As to conditions: strain Lab 110; average of at least two determinations; cited from earlier work.
A further data set relates to calf thymus DNA. The data set can be described thus: DNA thermal melting with calf thymus DNA. It is filed as binding. Particulars: 1:5 compound to DNA base pair ratio; mean of at least two determinations. The protocol:
(§1) In addition to the determination of the potency of the synthesized compounds against different strains of cell lines (Table 1), thermal melting experiments of these compounds were also conducted with poly(dA-dT) and calf thymus DNA (Table S1, supplementary file). […] The weaker binding to DNA (lower ΔTm values) compared to pentamidine might be attributed to the lower lipophilicity and higher PSA properties of these compounds since they would be expected to bind less favorably in the less polar environment of the minor grove of DNA as was reported for the aza-analogues of furamidine. […] Therefore, ability of these compounds to act at other potential targets cannot be ruled out.
(§2) The DNA binding affinity of the tested compounds was determined by measuring the change in mid-point of the thermal denaturation curves for a 1:5 compound to DNA base pair ratio as described previously. Each Tm value reported in Table S1 (supplementary file) represents the mean of at least two experimental determinations.

Data set [2] has as its system intracellular amastigote forms of T. cruzi Tulahuen strain C2C4 in rat skeletal myoblasts (L6 cells). As to the kind of experiment: In vitro anti-T. cruzi activity. Type of data set: cell-based, Trypanosoma cruzi. Particulars: for IC50: average of at least two determinations.
Experimental: (§5) The anti-T. cruzi activity was determined using intracellular amastigote forms of T. cruzi Tulahuen strain C2C4 in rat skeletal myoblasts (L6 cells) as described previously [24]. The anti-L. donovani activity was determined using the amastigotes of L. donovani strain MHOM-ET-67/L82 as described previously [24]. […] The cytotoxicity assays against rat skeletal myoblast L6-cells were performed as described previously [24].
In data set [3] the test system is P. falciparum NF54 (chloroquine-sensitive). The data set can be described thus: In vitro anti-plasmodial activity, NF54. Type of data set: cell-based, Plasmodium falciparum. Particulars: chloroquine-sensitive strain, read-out: IC50 P. falcip NF54.
Data set [4] deals with P. falciparum K1 (chloroquine-resistant). The data set can be described thus: In vitro anti-plasmodial activity, K1. Type of data set: cell-based, Plasmodium falciparum.
Experimental: as §5
The subject of data set [5] is amastigotes of L. donovani strain MHOM-ET-67/L82. The data set can be described thus: In vitro anti-L. donovani activity. As to conditions: for IC50: average of at least two determinations. Type of data set: cell-based, Leishmania donovani.
Experimental: as §5
The subject of data set [6] is T.b. rhodesiense KETRI 2002. As to the kind of experiment: In vivo trypanocidal activity in mice, KETRI 2002. As to conditions: for curing of infected mice: KETRI 2002, i.p., 3 days; for Mean Survival: KETRI 2002. The protocol:
(§3) The compounds were administered via the intraperitoneal route at doses ranging from 1.0 mg/kg/day to 25.0 mg/kg/day for 3 days unless otherwise noted. Pentamidine was used as the reference compound. All three of the tested compounds were effective in curing mice infected with the Lab 110 EATRO or KETRI 2002 strains at several doses.
(§4) The in vivo studies were conducted according to the procedures described previously.

In data set [7] the test system is T. b. brucei Lab 110 EATRO (pentamidine-sensitive). The data set can be described thus: In vitro antitrypanosomal activity, T.b. brucei Lab 110 EATRO. Type of data set: cell-based, Trypanosoma brucei brucei. Particulars: Trypanosoma brucei; Table S1; from IC50 of Table 1; read-out: pIC50 T.b. brucei (converted).
Experimental: (§6) The in vitro assays with the two isolates of T. brucei were conducted according to previously described procedures [14].
For data set [8], the system named is T.b. brucei Lab 110 EATRO. As to the kind of experiment: In vivo trypanocidal activity in mice, Lab 110 EATRO. As to conditions: for curing of infected mice: i.p., 3 days. The protocol:
as §3, §4

Data set [9] has as its system T. b. rhodesiense KETRi 243 (melarsoprol, pentamidine- and diminazene diaceturate-resistant). As to the kind of experiment: In vitro antitrypanosomal activity, T.b. rhodesiense KETRI 243. Type of data set: cell-based, Trypanosoma brucei rhodesiense. As to conditions: Trypanosoma brucei, RHODESIENSE; Table S1; from IC50 of Table 1; read-out: pIC50 T.b. rhod (converted).
Experimental: as §5

For data set [10] the test system is unchanged. Details: method as in PMID 19736009. As to conditions: strain KETRI 243; average of at least two determinations; read-out: IC50 T.b. rhod; cited from earlier work.
For data set [11], the system named is both strains of T. brucei and P. falciparum. As to the kind of experiment: In vitro potency against both strains of T. brucei and P. falciparum. Type of data set: cell-based, Trypanosoma brucei; Plasmodium falciparum. As to conditions: range over T.b. brucei, T.b. rhodesiense, P. falciparum NF54 and K1.
Experimental: as §6
The test system of a further data set is poly(dA-dT). As to the kind of experiment: DNA thermal melting with poly(dA-dT). Particulars: 1:5 compound to DNA base pair ratio; mean of at least two determinations. Type of data set: binding. The protocol:
as §1, §2

The test system of data set [12] is T.b. rhodesiense KETRI 2538. The data set can be described thus: In vivo trypanocidal activity in mice, KETRI 2538. As to conditions: for Mean Survival: KETRI 2538; for curing of infected mice: drug-resistant KETRI 2538, i.p., 3 days. The protocol:
as §3, §4

The subject of data set [13] is rat skeletal myoblast L6-cells. The data set can be described thus: Cytotoxicity against L6 cells. It is filed as cell-based. Particulars: cytotoxicity, read-out: IC50 L6 Cells.
Experimental: as §5
On the set-up of data set [14]: method as in PMID 24036514. As to conditions: incubation in vitro with mouse liver microsomes; cited from earlier work. On the technique in general: Liver microsomes are vesicles of endoplasmic reticulum, rich in cytochrome P450 enzymes.
The subject of data set [15] is T.b. rhodesiense KETRI 1992. The data set can be described thus: In vivo trypanocidal activity in mice, KETRI 1992. Particulars: for Mean Survival / No. of Mice Cured/Total (%): KETRI 1992.
For data set [16] the following is noted: human, in vivo; cited from earlier work.
The test system of data set [17] is both strains of P. falciparum. The data set can be described thus: In vitro activity and selectivity, both strains of P. falciparum. It is filed as cell-based, Plasmodium falciparum.
Experimental: The selectivity index of these compounds for T. brucei (SIT.b) or P. falciparum (SIP.f) are defined as the ratio of the L6 cells IC50 to the T. brucei or P. falciparum IC50 values.
The in vitro assays with the two isolates of T. brucei were conducted according to previously described procedures [14]. […] The cytotoxicity assays against rat skeletal myoblast L6-cells were performed as described previously [24].
The next data set deals with hemozoin formation. Details: method as in PMID 15115412. As to conditions: micromolar concentrations, ex vivo; cited from earlier work.
In another data set the test system is Pneumocystis. Further details: method as in PMID 16801410. As to conditions: 20 mg/kg and 40 mg/kg, cited from earlier work.
Setting [18] is: Trypanosoma cruzi, TULAHUEN, L6.
[19] abbreviates: Plasmodium falciparum, K1, Table S1, from IC50 of Table 1, read-out: pIC50 P. falcip K1 (converted).
The mark [20] stands for this setting: Plasmodium falciparum, K1, chloroquine-resistant strain, read-out: IC50 P. falcip K1.
Where [21] appears, read: 10, 15, 25 mg/kg/day i.p. for 3 days (all doses).
Setting [22] is: 1.0, 5, 10 mg/kg/day i.p. for 3 days (all doses).

The values below come from paper PMC4932538, “Alkanediamide-Linked Bisbenzamidines Are Promising Antiparasitic Agents” (Pharmaceuticals, 2016).

Where two headings read alike, the source gives them in different places.

As for `N=C(N)c1ccc(NC(=O)CCCCC(=O)Nc2ccc(C(=N)N)cc2)cc1` [Compound 6], the IC50 in data set [1] was 3 nM; in [2] (setting [18]), over 100000 nM; in [3] (Plasmodium falciparum, NF54) it was 4 nM; in data set [4] (setting [19]) it was 18 nM; in data set [4] (setting [20]) it was 18 nM; in [5] (Leishmania donovani), over 100000 nM. The IC50 in [7] was 3 nM; in data set [9] it was 2 nM; in [10], 2 nM; in data set [11], 1 to 96 nM; in [13] (Rattus norvegicus, L6) it was over 100000 nM. In the data set with calf thymus DNA, the “Thermal Melting ΔTm CT-DNA” value was 8.7 C. Also, the “curing of infected mice” value was “highly effective” in [6], “highly effective” in data set [8] and “highly efficacious” in data set [12]. Besides, the “Mean Survival” value is over 30 days in data set [6] (setting [21]); 6.7 days in [8] (1.0 mg/kg/day i.p. for 3 days); 10.0 days in data set [8] (2.5 mg/kg/day i.p. for 3 days); over 30 days in data set [8] (5 mg/kg/day i.p. for 3 days); over 30 days in data set [8] (10 mg/kg/day i.p. for 3 days); over 30 days in data set [8] (15 mg/kg/day i.p. for 3 days). Besides, the “Mean Survival” value in [12] (5, 10, 15 mg/kg/day i.p. for 3 days (all doses)) was over 30 days. Besides, the “No. of Mice Cured/Total (%)” value in data set [8] (1.0 mg/kg/day i.p. for 3 days) and in [8] (2.5 mg/kg/day i.p. for 3 days) was 0/3 each time. The “Thermal Melting ΔTm Poly(dA-dT)” value in the data set with poly(dA-dT) is recorded as 14.4 C.

As for `NC(=NO)c1ccc(NC(=O)CCCC(=O)Nc2ccc(C(N)=NO)cc2)cc1` [Compound 4], the IC50 was 7300 nM in [1]; over 100000 nM in data set [2] (setting [18]); 3160 nM in data set [4] (setting [19]); 3160 nM in [4] (setting [20]); over 100000 nM in [5] (Leishmania donovani); 7290 nM in [7]. For the same molecule, the IC50 in data set [9] was 10000 nM; in [13] (Rattus norvegicus, L6), over 100000 nM. Also, in the data set with calf thymus DNA, the “Thermal Melting ΔTm CT-DNA” value came to 0.7 C. Besides, the “Thermal Melting ΔTm Poly(dA-dT)” value in the data set with poly(dA-dT) is reported as 0.0 C. Also, the “metabolism of the amidoxime moiety to the amidine function” value in [14] was “readily metabolized”.

Turning to `N=C(N)c1ccc(OCCCCCOc2ccc(C(=N)N)cc2)cc1` [Pentamidine, pentamidine, reference compound], in the data set on calf thymus DNA, the “Thermal Melting ΔTm CT-DNA” value is listed as 11.6 C. Besides, the IC50 in data set [4] (setting [19]) is 180 nM; in data set [7], 2 nM; in data set [9], 2 nM; in data set [10] it was 2 nM. Also, the “Mean Survival” value in [6] (setting [22]) was over 30 days; in data set [8] (1.0, 2.5, 5, 10 mg/kg/day i.p. for 3 days (all doses)), over 30 days; in data set [12] (setting [22]), over 30 days; in data set [15] (1 mg/kg/day i.p. for 3 days), 12.6 days; in data set [15] (5 mg/kg/day i.p. for 3 days) it was 17.0 days; in data set [15] (10 mg/kg/day i.p. for 3 days), 22.2 days. In the data set with poly(dA-dT), the “Thermal Melting ΔTm Poly(dA-dT)” value is listed as 21.6 C. The “curing of infected mice” value in data set [15] (drug-resistant KETRI 1992, i.p., 3 days) was “ineffective”.

For the molecule `CONC(=N)c1ccc(-c2ccc(-c3ccc(C(=N)NOC)cc3)o2)cc1.O=C(O)/C=C\C(=O)O` [parafuramidine maleate], the “toxicity that halted development” value in [16] is recorded as “nephrotoxicity”.

For the molecule “N,N′-bis[4-(aminoiminomethyl)phenyl] ethane-1,2-dicarboxamide [Compound 1]”, the IC50 was 3 to 8 nM in data set [17] (range over NF54 and K1, read-out: IC50 against both strains of P. falciparum); over 100000 nM in data set [2]; 8 nM in data set [3]; 3 nM in data set [4] (chloroquine-resistant strain, read-out: IC50 P. falcip K1); over 100000 nM in data set [5]; over 100000 nM in data set [13]. For the same molecule, the “selectivity index for P. falciparum (SIP.f)” value in [17] (ratio of the L6 cells IC50 to the P. falciparum IC50) is given as > 33,000. The “activity against T. cruzi” value in data set [2] (in vitro) is “inactive”. Further, the “pIC50 P. falcip K1” value in data set [4] (Table S1, from IC50 of Table 1) was found to be 8.523. The “activity against L. donovani” value in [5] (in vitro) is “inactive”.

In the case of `N=C(N)c1ccc(NC(=O)CCCC(=O)Nc2ccc(C(=N)N)cc2)cc1` [Compound 5], in the data set with hemozoin formation, the “interference with hemozoin formation” value was “interfere with hemozoin formation”. Also, the IC50 was 9 nM in [1]; over 100000 nM in data set [2] (setting [18]); 2 nM in [3] (Plasmodium falciparum, NF54); 2 nM in data set [4] (setting [19]); 2 nM in data set [4] (setting [20]); over 100000 nM in data set [5] (Leishmania donovani). Also, the IC50 is 8.99 nM in data set [7]; 95.9 nM in [9]; 96 nM in data set [10]; 1 to 96 nM in data set [11]; 69000 nM in data set [13] (Rattus norvegicus, L6). The “Thermal Melting ΔTm CT-DNA” value in the data set with calf thymus DNA was 5.6 C. Further, the “curing of infected mice” value was “highly effective” in data set [6], “highly effective” in [8] and “highly efficacious” in data set [12]. The “Mean Survival” value in [6] (setting [21]) was over 30 days; in [8] (1.0 mg/kg/day i.p. for 3 days) it was 6.0 days; in data set [8] (2.5 mg/kg/day i.p. for 3 days), 11.3 days; in [8] (5 mg/kg/day i.p. for 3 days) it was 10 days; in data set [8] (10 mg/kg/day i.p. for 3 days), over 30 days; in data set [8] (15 mg/kg/day i.p. for 3 days), over 30 days. The “Mean Survival” value is over 30 days in data set [12] (setting [21]), 17.5 days in data set [15] (10 mg/kg/day i.p. for 3 days), 14.5 days in [15] (15 mg/kg/day i.p. for 3 days) and 25 days in [15] (25 mg/kg/day i.p. for 3 days). Moreover, the “No. of Mice Cured/Total (%)” value in [8] (1.0 mg/kg/day i.p. for 3 days), in [8] (2.5 mg/kg/day i.p. for 3 days), in [15] (10 mg/kg/day i.p. for 3 days), in data set [15] (15 mg/kg/day i.p. for 3 days) and in data set [15] (25 mg/kg/day i.p. for 3 days) was 0/3 each time. Further, the “survival versus pentamidine treated mice” value in the data set with Pneumocystis (same doses of pentamidine) is “improved survival curves”. In the data set with Pneumocystis, the reductions in burden was over 1000 fold. Moreover, the “Thermal Melting ΔTm Poly(dA-dT)” value in the data set on poly(dA-dT) is given as 11.4 C.
